Assay results reported in the Deep4Chem optical property database.

Test: solvent given as SMILES
[1] = in c1cc(-n2c3ccccc3c3ccccc32)cc(-n2c3ccccc3c3ccccc32)c1

COc1ccc(-c2nc(C)cc(-c3ccc(-n4c5ccccc5c5ccccc54)cc3)n2)cc1
fluorescence lifetime (in C1CCOC1): 3.76 ns
fluorescence lifetime (in CN(C)C=O): 6.51 ns
fluorescence lifetime (in Cc1ccccc1): 1.87 ns
fluorescence lifetime (in ClC(Cl)Cl): 3.91 ns

CC(C)(C)c1ccc(-c2nc3c4ccc(-c5cc6ccccc6c6ccccc56)cc4c4cc(-c5cc6ccccc6c6ccccc56)ccc4c3n2-c2ccc(C(C)(C)C)cc2)cc1
fluorescence lifetime (in ClCCl): 7 ns

O=C(O)c1ccc2cc3cc(C(=O)O)ccc3cc2c1
fluorescence lifetime (in C1CCOC1): 12.3 ns
fluorescence lifetime (in CN(C)C=O): 12.5 ns

N#C/C(=C\c1ccc(-c2ccncc2)cc1)c1ccc(-c2ccncc2)cc1
fluorescence lifetime (in ClCCl): 0.1 ns

O=S(=O)(c1ccc(N2c3ccccc3Oc3ccccc32)cc1)c1ccc(N2c3ccccc3Oc3ccccc32)cc1
fluorescence lifetime (in C1COCCO1): 19 ns
fluorescence lifetime (in CC(C)=O): 4.3 ns
fluorescence lifetime (in Cc1ccccc1): 15 ns
fluorescence lifetime (in ClC(Cl)Cl): 16 ns
fluorescence lifetime [1]: 14 ns

CCOc1cc2c(cc1/C=C/C(=C(C#N)C#N)c1ccccc1)c1ccccc1n2CC
fluorescence lifetime (in C1CCOC1): 5.66 ns
fluorescence lifetime (in CC#N): 5.72 ns
fluorescence lifetime (in CCO): 5.24 ns
fluorescence lifetime (in CCOC(C)=O): 5.19 ns
fluorescence lifetime (in CN(C)C=O): 5.41 ns
fluorescence lifetime (in CS(C)=O): 7.08 ns
fluorescence lifetime (in Cc1ccccc1): 6.76 ns
fluorescence lifetime (in ClC(Cl)Cl): 7.78 ns
fluorescence lifetime (in ClCCl): 5.13 ns

CCCC1(CCC)c2cc(C=C(C#Cc3ccccc3)C#Cc3ccccc3)ccc2-c2ccc(C=C(C#Cc3ccccc3)C#Cc3ccccc3)cc21
fluorescence lifetime (in ClC(Cl)Cl): 0.6 ns

COC(=O)c1cc(=O)n(C)c2cc(-c3cc(OC)c(OC)c(OC)c3)sc12
fluorescence lifetime (in ClCCl): 1.36 ns

c1ccc2c(c1)[nH]c1cccnc12
fluorescence lifetime (in C1CCCCC1): 4.6 ns

COc1c2ccccc2c(OC)c2c1c1cc(C)ccc1n2C
fluorescence lifetime (in C1CCCCC1): 24.6 ns
fluorescence lifetime (in CC#N): 31.1 ns
fluorescence lifetime (in CO): 29.8 ns
fluorescence lifetime (in ClCCl): 27.6 ns

COC(=O)C(Cc1ccc2oc(-c3ccc4c(c3)c3ccccc3n4-c3ccccc3)nc2c1)NC(=O)OC(C)(C)C (stereo unspecified)
fluorescence lifetime (in C1CCCCC1): 2.29 ns
fluorescence lifetime (in C1CCOC1): 1.73 ns
fluorescence lifetime (in C1COCCO1): 1.96 ns
fluorescence lifetime (in CC1CCCO1): 1.83 ns
fluorescence lifetime (in CC1COC(=O)O1): 1.83 ns
fluorescence lifetime (in CC#N): 1.77 ns
fluorescence lifetime (in CC(C)=O): 1.75 ns
fluorescence lifetime (in CC(C)CC(C)(C)C): 2.22 ns
fluorescence lifetime (in CC(C)CO): 1.55 ns
fluorescence lifetime (in CC(C)O): 1.57 ns
fluorescence lifetime (in CC(C)OC(C)C): 1.66 ns
fluorescence lifetime (in CC(O)CO): 1.74 ns
fluorescence lifetime (in CCC(C)CC): 2.25 ns
fluorescence lifetime (in CCCCC): 2.66 ns
fluorescence lifetime (in CCCCCC): 2.23 ns
fluorescence lifetime (in CCCCCCCCC): 2.3 ns
fluorescence lifetime (in CCCCCCCCCC): 2.33 ns
fluorescence lifetime (in CCCCCCCO): 1.55 ns
fluorescence lifetime (in CCCCCCO): 1.56 ns
fluorescence lifetime (in CCCCCO): 1.54 ns
fluorescence lifetime (in CCCCO): 1.54 ns
fluorescence lifetime (in CCO): 1.66 ns
fluorescence lifetime (in CCOC(C)=O): 1.87 ns
fluorescence lifetime (in CCOCC): 2.13 ns
fluorescence lifetime (in CN(C)C=O): 1.73 ns
fluorescence lifetime (in CO): 1.72 ns
fluorescence lifetime (in COCCOC): 1.2 ns
fluorescence lifetime (in CS(C)=O): 1.69 ns
fluorescence lifetime (in Cc1ccccc1): 1.66 ns
fluorescence lifetime (in Cc1ccccc1C): 1.76 ns
fluorescence lifetime (in ClC(Cl)Cl): 1.32 ns
fluorescence lifetime (in ClCCl): 1.5 ns
fluorescence lifetime (in NC=O): 1.86 ns
fluorescence lifetime (in OC1CCCCC1): 1.58 ns
fluorescence lifetime (in OCCO): 1.84 ns
fluorescence lifetime (in c1ccccc1): 1.67 ns

O=C1c2ccccc2C2=C(c3ccccn3)NN=C(c3ccccn3)C2c2ccccc21 (stereo unspecified)
fluorescence lifetime (in CC#N): 12.8 ns

COC(=O)C(NC(=O)OC(C)(C)C)c1ccc2oc(-c3ccc(OC(=O)c4ccccc4)cc3O)nc2c1 (stereo unspecified)
fluorescence lifetime (in CC1CCCCC1): 0.64 ns
fluorescence lifetime (in CC#N): 0.3 ns
fluorescence lifetime (in CO): 0.027 ns

CCCn1c2cccc3c2[c+]2c4c1cccc4n(CCC)c1cccc(c12)n3CCC
fluorescence lifetime (in CC#N): 7.5 ns
fluorescence lifetime (in CO): 9.9 ns
fluorescence lifetime (in ClCCl): 6.3 ns
fluorescence lifetime (in OCC(O)CO): 11 ns

N#Cc1cc(-n2c3ccccc3c3ncccc32)c(-n2c3ccccc3c3ncccc32)cc1C#N
fluorescence lifetime [1]: 70 ns

N#C/C=C/c1ccc2ccc3cccc4ccc1c2c34
fluorescence lifetime (in C1CCOC1): 3.2 ns
fluorescence lifetime (in CC#N): 3 ns
fluorescence lifetime (in CC(C)=O): 3.1 ns

CC(C)(C)c1ccc(Oc2c3c4c(cc(Oc5ccc(C(C)(C)C)cc5)c5c6c(Oc7ccc(C(C)(C)C)cc7)c(Oc7ccc(C(C)(C)C)cc7)c7c8c(cc(Oc9ccc(C(C)(C)C)cc9)c(c(c2Oc2ccc(C(C)(C)C)cc2)c45)c86)C(=O)OC7=O)C(=O)OC3=O)cc1
fluorescence lifetime (in ClC(Cl)Cl): 6 ns

COc1ccc([Si](C)(C)C)c2ccccc12
fluorescence lifetime (in C1CCCCC1): 10 ns

COC(=O)c1cc(=O)n(C)c2cc(-c3ccccc3N(C)C)sc12
fluorescence lifetime (in ClCCl): 1.23 ns

CCn1c2ccccc2c2cc(C#Cc3cc(C#Cc4ccc5c(c4)c4ccccc4n5CC)nc(C#N)n3)ccc21
fluorescence lifetime (in C1CCOC1): 4.26 ns
